# In patent publication US20230255903A1, “URINARY SYMPTOM THERAPEUTIC AGENT” (TAIHO PHARMACEUTICAL CO., LTD., priority 2020, published 2023):
# Where “and” joins values, the source holds several entries; their conditions need not be identical. Identical values can stand only once.
# Experiments:
# [1] = tested on: patients having detrusor underactivity (DU); assay: Placebo-controlled double-blind comparative study: bladder voiding efficiency (BVE); format: in vivo, human; details: for BVE, Value at Week 12, Mean(S.D.) / BVE, Change from Baseline at Week 12, Mean(S.D.): 200 mg orally twice a day for 12 weeks, FAS; for BVE change, Mean Difference = Compound 1-Placebo: Week 12; for Effect on voiding efficiency (in words): 12 weeks
# Description: (§1) Patients having detrusor underactivity (DU) and at least one voiding symptom associated with DU, such as abdominal straining to void, slow urinary stream, intermittent stream, residual urine, and reduced voiding efficiency, were used as subjects. Using such subjects, a placebo-controlled double-blind comparative study was performed to examine the effectiveness and safety of Compound 1 (this test was performed using patients also having overactive bladder as subjects). Under double-blind conditions (in which neither the doctor who prescribed the drug nor the patients knew which drug was administered to each patient), 200 mg of Compound 1 or a placebo was orally administered twice a day after a meal for 12 weeks to evaluate the effectiveness and safety of Compound 1.
# To evaluate the effectiveness, BVE (bladder voiding efficiency) was evaluated. BVE (%) was calculated by the following formula:
# Voided volume/(Voided volume+Residual urine volume)×100.
# The voided volume refers to the amount of urine per urination. The residual urine volume refers to the amount of urine that resides in the bladder as measured by transabdominal ultrasonography after completion of urination. The difference between the baseline (before administration) and the measurement value after 12 weeks of the administration was evaluated by using a paired t-test, whereas the difference in amount of BVE variation between the Compound 1 group and the placebo group was evaluated by using Student's t-test.
# [2] = tested on: patients having lower urinary tract disorders; assay: Placebo-controlled double-blind comparative study: adverse events and adverse drug reactions; format: in vivo, human
# Description: as §1
# To study the safety of Compound 1 in patients having lower urinary tract disorders, adverse events (any unfavorable medical event that occurred in patients who participated in this study; whether or not there is a causal relationship with the active ingredient) and adverse drug reactions (adverse events that are determined to “have a reasonable possibility” of a causal relationship with the drug) were measured.
# [3] = patients with a residual urine volume of 50 mL or more, N=29
# [4] = patients with a residual urine volume of 100 mL or more, N=19
# [5] = patients with a residual urine volume of less than 50 mL, N=19
# [6] = 200 mg orally twice a day for 12 weeks, All Treated Patients, N=52
smiles,measurement,setting,value
"CC1=C(CCCCCCCCCCCCCCCO)C(C)(C)CCC1=O [Compound 1, 3-(15-hydroxypentadecyl)-2,4,4-trimethyl-2-cyclohexen-1-one]","BVE, Value at Week 12, Mean(S.D.)","[1]; entire group of patients having lower urinary tract disorders, N=48",66.79 (27.04) %
same,"BVE, Change from Baseline at Week 12, Mean(S.D.)","[1]; entire group of patients, N=48",10.91% and 10.91 (26.48) %
same,"BVE change, Mean Difference = Compound 1-Placebo","[1]; entire group of patients, Student's t-test p=0.178",8.49%
same,Effect on voiding efficiency (in words),[1]; patients with a residual urine volume of 50 mL or more or of 100 mL or more,significantly increased the voiding efficiency
same,"BVE, Change from Baseline at Week 12, Mean(S.D.)",[1]; [3],18.41% and 18.41 (24.39) %
same,"BVE, Value at Week 12, Mean(S.D.)",[1]; [3],61.66 (30.45) %
same,"BVE change, Mean Difference = Compound 1-Placebo","[1]; patients with a residual urine volume of 50 mL or more, Student's t-test p=0.031",15.53%
same,"BVE, Change from Baseline at Week 12, Mean(S.D.)",[1]; [4],23.57% and 23.57 (25.54) %
same,"BVE, Value at Week 12, Mean(S.D.)",[1]; [4],54.71 (33.78) %
same,"BVE change, Mean Difference = Compound 1-Placebo","[1]; patients with a residual urine volume of 100 mL or more, Student's t-test p=0.025",21.47%
same,"BVE, Change from Baseline at Week 12, Mean(S.D.)",[1]; [5],−0.55 (25.99) %
same,"BVE, Value at Week 12, Mean(S.D.)",[1]; [5],74.62 (18.94) %
same,Effect on voiding efficiency (in words),[1]; patients with a residual urine volume of less than 50 mL,did not significantly increase the voiding efficiency
same,"BVE change, Mean Difference = Compound 1-Placebo","[1]; patients with a residual urine volume of less than 50 mL, Student's t-test p=0.853",−2.09%
same,"Adverse Drug Reactions, N (patients)",[2]; [6],0
same,"Adverse Drug Reactions, incidence",[2]; [6],0.0%
same,"Adverse Events, N (patients)",[2]; [6],24
same,"Adverse Events, incidence",[2]; [6],46.2%
same,Safety and tolerability (in words),[2]; oral administration of 200 mg twice a day for 12 weeks,well tolerated
